Results reported in patent US7244738B2, “Arylamine-substituted quinazolinone compounds useful as alpha 1A/B adrenergic receptor antagonists” (Roche Palo Alto LLC, priority 2003, dated 2007).

Q: Which melting point does the source give for `CCC1CCN(c2cccc(CN(C)c3nc(=O)c4c(C)c(OC)c(OC)cc4[nH]3)c2)C1=O` (centres unmarked) [Example 257, 2-{[3-(3-Ethyl-2-oxo-pyrrolidin-1-yl)-benzyl]-methyl-amino}-6,7-dimethoxy-5-methyl-1H-quinazolin-4-one] here?
A: 200.1 to 202.1 °C

Q: For `COc1cc2[nH]c(N(C)Cc3cccc(N4C(=O)CCC4=O)c3)nc(=O)c2c(C)c1OC` [Example 259], which melting point is on record?
A: 198.6 to 199.8 °C

Q: For `COc1cc2[nH]c(N(C)Cc3cccc(N4C(=O)CCC4=O)c3)nc(=O)c2c(OC)c1OC` [Example 260, 1-(3-{[Methyl-(5,6,7-trimethoxy-4-oxo-1,4-dihydro-quinazolin-2-yl)-amino]-methyl}-phenyl)-pyrrolidine-2,5-dione], which melting point is on record?
A: 125.5 to 128.5 °C

Q: With `COc1cc2[nH]c(N(C)Cc3cccc(N4CCNC4=O)c3)nc(=O)c2c(OC)c1OC` [Example 261, 5,6,7-Trimethoxy-2-{methyl[3-(2-oxo-imidazolidin-1-yl)-benzyl]-amino}-1H-quinazolin-4-one] as the compound, how does the melting point read?
A: 130 to 133 °C

Q: With `COc1cc2[nH]c(N(C)Cc3cccc(N4CCN(C)C4=O)c3)nc(=O)c2c(C)c1OC` [Example 262, 6,7-Dimethoxy-5-methyl-2-{methyl-[3-(3-methyl-2-oxo-imidazolidin-1-yl)-benzyl]-amino}-1H-quinazolin-4-one] as the compound, how does the melting point read?
A: 230 to 230.5 °C

Q: For `COc1cc2[nH]c(N(C)Cc3cccc(N4CCN(C)C4=O)c3)nc(=O)c2c(OC)c1OC` [Example 263, 5,6,7-Trimethoxy-2-{methyl-[3-(3-methyl-2-oxo-imidazolidin-1-yl)-benzyl]-amino}-1H-quinaozlin-4-one], which melting point is on record?
A: 205.4 to 207.8 °C

Q: With `CCN1CCN(c2cccc(CN(C)c3nc(=O)c4c(C)c(OC)c(OC)cc4[nH]3)c2)C1=O` [Example 264, 2-{[3-(3-Ethyl-2-oxo-imidazolidin-1-yl)-benzyl]-methyl-amino}-6,7-dimethoxy-5-methyl-1H-quinaozlin-4-one] as the compound, how does the melting point read?
A: 201.4 to 207.4 °C

Q: With `CCN1CCN(c2cccc(CN(C)c3nc(=O)c4c(OC)c(OC)c(OC)cc4[nH]3)c2)C1=O` [Example 265, 2-{[3-(3-Ethyl-2-oxo-imidazolidin-1-yl)-benzyl]-methyl-amino}-5,6,7-trimethoxy-1H-quinaozlin-4-one] as the compound, how does the melting point read?
A: 200.3 to 200.9 °C

Q: Which melting point does the source give for `COCCN1CCN(c2cccc(CN(C)c3nc(=O)c4c(OC)c(OC)c(OC)cc4[nH]3)c2)C1=O` [Example 266, 5,6,7-Trimethoxy-2-({3-[3-(2-methoxy-ethyl)-2-oxo-imidazllidin-1-yl]-benzyl}-methyl-amino)-1H-quinazolin-4-one] here?
A: 199.5 to 202.1 °C

Q: Which melting point does the source give for `COc1cc2[nH]c(N(C)Cc3cccc(C(C)N4CCCC4)n3)nc(=O)c2c(C)c1OC` (centres unmarked) [Example 275, 6,7-Dimethoxy-5-methyl-2-{methyl-[6-(1-pyrrolidin-1-yl-ethyl)-pyridin-2-ylmethyl]-amino}-1H-quinazolin-4-one] here?
A: 75.4 to 85.6 °C

Q: Which melting point does the source give for `COc1cc2[nH]c(N(C)Cc3cccc(C(C)N4CCC4)n3)nc(=O)c2c(OC)c1OC` (centres unmarked) [Example 278, 2-{[6-(1-Aztidin-1-yl-ethyl)-pyridin-2-ylmethyl]-methyl-amino}-5,6,7-trimethoxy-1H-quinazolin-4-one] here?
A: 70.8 to 78.8 °C

Q: Which melting point does the source give for `COc1cc2[nH]c(N(C)Cc3cccc(C(C)N(C)S(C)(=O)=O)c3)nc(=O)c2c(OC)c1OC` (centres unmarked) [Example 292, N-Methyl-N-[1-(3-{[methyl-(5,6,7-trimethoxy-4-oxo-1,4-dihydro-quinazolin-2-yl)-amino]-methyl}-phenyl)-ethyl]-methanesulfonamide] here?
A: 171 to 172.4 °C

Q: For `COc1cc2[nH]c(N(C)Cc3cccc(C(C)N(C)C(=O)N(C)C)c3)nc(=O)c2c(OC)c1OC` (centres unmarked) [Example 293], which melting point is on record?
A: 68 to 70 °C

Q: Which melting point does the source give for `COCCOC(=O)N(C)Cc1cccc(CN(C)c2nc(=O)c3c(C)c(OC)c(OC)cc3[nH]2)c1` [Example 294, (3-{[(6,7-Dimethoxy-5-methyl-4-oxo-1,4-dihydro-quinazolin-2-yl)-methyl-amino]-methyl}-benzyl)-methyl-carbamic acid 2-methoxy-ethyl ester] here?
A: 145.8 to 146.9 °C

Q: With `COc1cc2[nH]c(N(Cc3ccccc3)C(C)C)nc(=O)c2cc1OC` [Example A-7, 2-(Benzyl-isopropyl-amino)-6,7-dimethoxy-1H-quinazolin-4-one] as the compound, how does the melting point read?
A: 168 to 170.5 °C

Q: With `COc1cc2[nH]c(N(C)Cc3cccc(N4C=NC(C)(C)C4)c3)nc(=O)c2cc1OC` [Example A-12, 2-{[3-(4,4-Dimethyl-4,5-dihydro-imidazol-1-yl)-benzyl]-methyl-amino}-6,7-dimethoxy-1H-quinazolin-4-one] as the compound, how does the melting point read?
A: 240 to 244 °C

Q: For `COc1cc2[nH]c(N(C)Cc3cccc(N)c3)nc(=O)c2c(C)c1OC` [Example B-1, 2-[(3-Amino-benzyl)-methyl-amino]-6,7-dimethoxy-5-methyl-1H-quinazolin-4-one], which melting point is on record?
A: 268 to 269.5 °C

Q: Which melting point does the source give for `CNCc1cccc(CN(C)c2nc3cc(OC)c(OC)c(C)c3c(=O)[nH]2)c1` [Example C-1, 6,7-Dimethoxy-5-methyl-2-[methyl-(3-methylaminomethyl-benzyl)-amino]-1H-quinazolin-4-one] here?
A: 179 to 181.3 °C

Q: Which melting point does the source give for `COc1cc2nc(N(C)Cc3cccc(OCCO)c3)[nH]c(=O)c2c(OC)c1OC` [Example F-1, 2-{[3-(2-Hydroxy-ethoxy)-benzyl]-methyl-amino}-5,6,7-trimethoxy-1H-quinazolin-4-one] here?
A: 146 to 147.5 °C

Q: For `COc1cc2nc(N(C)Cc3cccc(OC[S+](C)[O-])c3)[nH]c(=O)c2c(C)c1OC` (centres unmarked) [Example F-2, 2-[(3-Methanesulfinylmethoxy-benzyl)-methyl-amino]-6,7-dimethoxy-5-methyl-1H-quinazolin-4-one], which melting point is on record?
A: 191 to 193.5 °C

Q: For `COc1cc2[nH]c(N(C)Cc3cccc(OCS(C)(=O)=O)c3)nc(=O)c2c(OC)c1OC` [Example F-6, 2-[(3-Methanesulfonylmethoxy-benzyl)-methyl-amino]-5,6,7-trimethoxy-1H-quinazolin-4-one], which melting point is on record?
A: 183.9 to 185.4 °C

Q: For `COc1cc2[nH]c(N(C)Cc3cccc(OCCO)c3)nc(=O)c2c(C)c1OC` [Example F-9, 2-{[3-(2-Hydroxy-ethoxy)-benzyl]-methyl-amino}-6,7-dimethoxy-5-methyl-1H-quinazolin-4-one], which melting point is on record?
A: 180.5 to 183.1 °C

Q: For `COCCOc1cccc(CN(C)c2nc(=O)c3c(C)c(OC)c(OC)cc3[nH]2)c1` [Example F-10, 6,7-Dimethoxy-2-{[3-(2-methoxy-ethoxy)-benzyl]-methyl-amino}-5-methyl-1H-quinazolin-4-one], which melting point is on record?
A: 144.8 to 145.9 °C

Q: Which melting point does the source give for `COCCOc1cccc(CN(C)c2nc(=O)c3c(OC)c(OC)c(OC)cc3[nH]2)c1` [Example F-11, 5,6,7-Trimethoxy-2-{[3-(2-methoxy-ethoxy)-benzyl]-methyl-amino}-1H-quinazolin-4-one] here?
A: 144.8 to 145.9 °C

Q: Which melting point does the source give for `COc1cc2[nH]c(N(C)Cc3cccc(Oc4ncccn4)c3)nc(=O)c2c(OC)c1OC` [Example F-16, 5,6,7-Trimethoxy-2-{methyl-[3-(pyrimidin-2-yloxy)-benzyl]-amino}-1H-quinazolin-4-one] here?
A: 191 to 192.9 °C

Q: For `COc1cc2[nH]c(N(C)Cc3cccc(NS(C)(=O)=O)c3)nc(=O)c2c(C(C)C)c1OC` [Example G-2, N-(3-{[(5-Isopropyl-6,7-dimethoxy-4-oxo-1,4-dihydro-quinazolin-2-yl)-methyl-amino]-methyl}-phenyl)-methanesulfonamide], which melting point is on record?
A: 215 to 217 °C
